From ChEMBL document CHEMBL4316596, “Antimicrobial Peptides with High Proteolytic Resistance for Combating Gram-Negative Bacteria” (J Med Chem, 2019)
Converted amounts (≈) assume the structure as drawn. The source made the active and inactive calls. No cut-off for these calls is given here.

How the values were obtained:
Escherichia coli [1] = test: Bactericidal activity against Escherichia coli ATCC 25922 incubated for 4 hrs followed by culture spread on agar plates and cultured overnight in presence of 0.5 mg/ml chymotrypsin; format: functional; details: ATCC 25922, 4 h, read-out: MBC>99.9
Acinetobacter baumannii = test: Bactericidal activity against Acinetobacter baumannii incubated for 4 hrs followed by culture spread on agar plates and cultured overnight; format: functional; details: read-out: MBC>99.9
[2] = Selectivity ratio of IC50 for pig IPECJ2 cells to geometric mean of the peptide MBC for bacteria
Escherichia coli [3] = test: Bactericidal activity against Escherichia coli ATCC 25922 incubated for 4 hrs followed by culture spread on agar plates and cultured overnight in presence of 12.5% serum albumin; format: functional; details: ATCC 25922, 4 h, read-out: MBC>99.9
Escherichia coli [4] = test: Bactericidal activity against Escherichia coli K99 incubated for 4 hrs followed by culture spread on agar plates and cultured overnight; format: functional; details: K99, 4 h, read-out: MBC>99.9
Pseudomonas aeruginosa [5] = test: Antimicrobial activity against Pseudomonas aeruginosa PAO1 after 24 hrs by NCCLS-protocol based assay; format: functional; details: PAO1, 24 h
Escherichia coli [6] = test: Bactericidal activity against Escherichia coli ATCC 25922 incubated for 4 hrs followed by culture spread on agar plates and cultured overnight in presence of ZnCl2; format: functional; details: ATCC 25922, 4 h, read-out: MBC>99.9
Escherichia coli [7] = test: Bactericidal activity against Escherichia coli ATCC 25922 incubated for 4 hrs followed by culture spread on agar plates and cultured overnight in presence of 1 mg/ml trypsin; format: functional; details: ATCC 25922, 4 h, read-out: MBC>99.9
Escherichia coli [8] = test: Bactericidal activity against Escherichia coli ATCC 25922 incubated for 4 hrs followed by culture spread on agar plates and cultured overnight in presence of 1 mg/ml chymotrypsin; format: functional; details: ATCC 25922, 4 h, read-out: MBC>99.9
Escherichia coli [9] = test: Bactericidal activity against Escherichia coli ATCC 25922 incubated for 4 hrs followed by culture spread on agar plates and cultured overnight in presence of 2 mg/ml chymotrypsin; format: functional; details: ATCC 25922, 4 h, read-out: MBC>99.9
Escherichia coli [10] = test: Induction of cytoplasmic membrane depolarization in Escherichia coli ATCC 25922 at 2 uM up to 5000 secs by DiSC3-5 dye-based fluorescence spectrophotometric method; format: functional, organism-based
Escherichia coli [11] = test: Bactericidal activity against Escherichia coli ATCC 25922 incubated for 4 hrs followed by culture spread on agar plates and cultured overnight in presence of 25% serum albumin; format: functional; details: ATCC 25922, 4 h, read-out: MBC>99.9
[12] = Selectivity ratio of IC50 for HEK293T cells to geometric mean of the peptide MBC for bacteria
Pseudomonas aeruginosa [13] = test: Bactericidal activity against Pseudomonas aeruginosa 25349 clinical isolates incubated for 4 hrs followed by culture spread on agar plates and cultured overnight; format: functional; details: Pseudomonas aeruginosa, 25349, 4 h; read-out: MBC>99.9
Escherichia coli [14] = test: Antimicrobial activity against Escherichia coli 078 after 24 hrs by NCCLS-protocol based assay; format: functional; details: Escherichia coli, 078, 24 h
Escherichia coli [15] = test: Antimicrobial activity against Escherichia coli K99 after 24 hrs by NCCLS-protocol based assay; format: functional; details: K99, 24 h
Escherichia coli [16] = test: Antimicrobial activity against Escherichia coli UB1005 after 24 hrs by NCCLS-protocol based assay; format: functional; details: UB1005, 24 h
Escherichia coli [17] = test: Induction of cytoplasmic membrane depolarization in Escherichia coli ATCC 25922 assessed as induction cytoplasmic ONPG release at 2 to 16 uM up to 120 mins by DiSC3-5 dye-based fluorescence spectrophotometric method; format: functional, organism-based
Escherichia coli [18] = test: Bactericidal activity against Escherichia coli ATCC 25922 incubated for 4 hrs followed by culture spread on agar plates and cultured overnight in presence of 0.5 mg/ml trypsin; format: functional; details: ATCC 25922, 4 h, read-out: MBC>99.9
Pseudomonas aeruginosa [19] = test: Antimicrobial activity against Pseudomonas aeruginosa CICC 21625 clinical isolates after 24 hrs by NCCLS-protocol based assay; format: functional; details: CICC 21625, 24 h
Salmonella typhimurium [20] = test: Bactericidal activity against Salmonella typhimurium ATCC 14028 incubated for 4 hrs followed by culture spread on agar plates and cultured overnight; format: functional, Salmonella enterica subsp. enterica serovar Typhimurium; details: Salmonella enterica, ATCC 14028, 4 h; read-out: MBC>99.9
Escherichia coli [21] = test: Bactericidal activity against Escherichia coli ATCC 25922 incubated for 4 hrs followed by culture spread on agar plates and cultured overnight in presence of 4 mg/ml chymotrypsin; format: functional; details: ATCC 25922, 4 h, read-out: MBC>99.9
Escherichia coli [22] = test: Bactericidal activity against Escherichia coli ATCC 25922 incubated for 4 hrs followed by culture spread on agar plates and cultured overnight in presence of KCl; format: functional; details: ATCC 25922, 4 h, read-out: MBC>99.9
Escherichia coli [23] = test: Induction of outer membrane permeabilization in Escherichia coli ATCC 25922 at 1 uM by NPN-dye based assay relative to control
[24] = Selectivity ratio of HC10 for human RBC to geometric mean of the peptide MBC for bacteria
[25] = Bactericidal activity against Salmonella pullorum C7913 incubated for 4 hrs followed by culture spread on agar plates and cultured overnight; format: functional, Salmonella enterica subsp. enterica serovar Pullorum; details: Salmonella enterica, C7913, 4 h; read-out: MBC>99.9
Pseudomonas aeruginosa [26] = test: Antimicrobial activity against Pseudomonas aeruginosa ATCC 27853 after 24 hrs by NCCLS-protocol based assay; format: functional; details: ATCC 27853, 24 h
HEK-293T = test: Cytotoxicity against HEK293T cells assessed as cell death after 18 to 24 hrs by MTT assay; format: cell-based; details: Homo sapiens
Escherichia coli [27] = test: Bactericidal activity against Escherichia coli ATCC 25922 incubated for 4 hrs followed by culture spread on agar plates and cultured overnight in presence of MgCl2; format: functional; details: ATCC 25922, 4 h, read-out: MBC>99.9
Pseudomonas aeruginosa [28] = test: Bactericidal activity against Pseudomonas aeruginosa CICC 21625 clinical isolates incubated for 4 hrs followed by culture spread on agar plates and cultured overnight; format: functional; details: CICC 21625, 4 h, read-out: MBC>99.9
Salmonella typhimurium [29] = test: Antimicrobial activity against Salmonella typhimurium C7731 after 24 hrs by NCCLS-protocol based assay; format: functional, Salmonella enterica subsp. enterica serovar Typhimurium; details: Salmonella enterica, C7731, 24 h
Chymotrypsin = Chymotrypsin (Homo sapiens, UniProt Q99895+P17538+P40313+Q6GPI1); test: Stability of the compound assessed as chymotrypsin (unknown origin)-mediated compound hydrolysis after 4 hrs by SDS-PAGE analysis; format: ADME, protein assay
[30] = Stability of the compound assessed as pepsin (unknown origin)-mediated compound hydrolysis by measuring compound helicity by CD spectroscopy; format: ADME; details: human
Escherichia coli [31] = test: Antibacterial activity against Escherichia coli ATCC 25922 infected in ICR mouse assessed as mouse survival at 5 mg/kg, ip dosed at 0.5, 2, 4 and 8 hrs post-infection; format: functional; details: ATCC 25922, ip
Trypsin = Trypsin (Homo sapiens, UniProt P07477+P07478+P35030); test: Stability of the compound assessed as trypsin (unknown origin)-mediated compound hydrolysis after 8 hrs by SDS-PAGE analysis; format: ADME, protein assay
[32] = Stability of the compound assessed as pepsin (unknown origin)-mediated compound hydrolysis after 8 hrs by SDS-PAGE analysis; format: ADME; details: human

Compound | MBC (Escherichia coli [1]) [µM] | MBC (Acinetobacter baumannii) [µM] | Ratio [2] | MBC (Escherichia coli [3]) [µM] | MBC (Escherichia coli [4]) [µM] | MIC95 (Pseudomonas aeruginosa [5]) [µM] | MBC (Escherichia coli [6]) [µM] | MBC (Escherichia coli [7]) [µM] | MBC (Escherichia coli [8]) [µM] | MBC (Escherichia coli [9]) [µM] | MBC (Escherichia coli [11]) [µM] | Ratio [12] | MBC (Pseudomonas aeruginosa [13]) [µM] | MIC95 (Escherichia coli [14]) [µM] | MIC95 (Escherichia coli [15]) [µM] | MIC95 (Escherichia coli [16]) [µM] | MBC (Escherichia coli [18]) [µM] | MIC95 (Pseudomonas aeruginosa [19]) [µM] | MBC (Salmonella typhimurium [20]) [µM] | MBC (Escherichia coli [21]) [µM] | further results
CC[C@H](C)[C@H](NC(=O)CN)C(=O)NCC(=O)N[C@@H](C)C(=O)N[C@H](C(=O)N[C@@H](CC(C)C)C(=O)N[C@@H](CCCCN)C(=O)N[C@H](C(=O)N[C@@H](CC(C)C)C(=O)N[C@H](C(=O)N[C@H](C(=O)NCC(=O)N[C@@H](CC(C)C)C(=O)N1CCC[C@H]1C(=O)N[C@@H](C)C(=O)N[C@@H](CC(C)C)C(=O)N[C@H](C(=O)N[C@@H](CO)C(=O)N[C@@H](Cc1c[nH]c2ccccc12)C(=O)N[C@H](C(=O)N[C@@H](CCCCN)C(=O)N[C@@H](CCCNC(=N)N)C(=O)N[C@@H](CCCCN)C(=O)N[C@@H](CCCNC(=N)N)C(=O)N[C@@H](CCC(N)=O)C(=O)N[C@@H](CCC(N)=O)C(N)=O)[C@@H](C)CC)[C@@H](C)CC)[C@@H](C)O)[C@@H](C)O)C(C)C)C(C)C [MELITTIN] | > 64 | 1 (≈ 2.85 µg/mL) | 1.31 | 32 | 2 (≈ 5.69 µg/mL) | 2 (≈ 5.69 µg/mL) | 2 | 16 | > 64 | > 64 | 64 | 1.14 | 4 (≈ 11.4 µg/mL) | 0.5 (≈ 1.42 µg/mL) | 2 (≈ 5.69 µg/mL) | 2 (≈ 5.69 µg/mL) | 4 | 4 (≈ 11.4 µg/mL) | 2 (≈ 5.69 µg/mL) | > 64 | Activity (Escherichia coli [10]): Active; Activity (Escherichia coli [17]): Active; MBC (Escherichia coli [22]): 2 µM; Activity (Escherichia coli [23]): Active; Ratio [24]: 0.92; MBC [25]: 4 µM (≈ 11.4 µg/mL); MIC95 (Pseudomonas aeruginosa [26]): 2 µM (≈ 5.69 µg/mL); IC50 (HEK-293T): 2.48 µM; MBC (Escherichia coli [27]): 4 µM; MBC (Pseudomonas aeruginosa [28]): 4 µM (≈ 11.4 µg/mL); MIC95 (Salmonella typhimurium [29]): 1 µM (≈ 2.85 µg/mL)
H-LRPLLRPLLRPLLRPLLRPLLRPLLRPL-NH2 | 2 | 1 | 4.11 | 4 | 2 | 1 | 2 | 2 | > 64 | > 64 | 8 | 7.42 | 8 | 1 | 1 | 2 | 2 | 8 | 2 | > 64 | Stability (Chymotrypsin): Unstable; Stability [30]: Unstable; survival at 5 mg/kg (Escherichia coli [31]): 37.5%; Stability (Trypsin): Stable; MBC (Escherichia coli [22]): 2 µM; Ratio [24]: 24.7; MBC [25]: 2 µM; MIC95 (Pseudomonas aeruginosa [26]): 1 µM; Stability [32]: Unstable; IC50 (HEK-293T): 19.2 µM; MBC (Escherichia coli [27]): 2 µM; MBC (Pseudomonas aeruginosa [28]): 8 µM; MIC95 (Salmonella typhimurium [29]): 2 µM
